# Source: US8901142B2, “Fused tricyclic compounds as mTOR inhibitors” (Merck Sharp & Dohme Corp., priority 2011, dated 2014)
# Assays:
# [1] = system: mTORC2 (pAKT S473) in PC3 cells; test: mTOR target engagement assay, immunofluorescent cell-based, mTORC2 activity by reduction of pAKT S473; conditions: Homo sapiens, PC-3, ninety minutes at 37° C., immunofluorescence
# Description: (§1) The target engagement of mTOR kinase inhibitors was evaluated using an immunofluorescent cell-based assay. In this assay, inhibition of mTORC1 activity was measured by the reduction in the level of phosphorylated 4E-BP1Thr37/46 (p4E-BP1 Thr37/46), and inhibition of mTORC2 activity was measured by the reduction of phosphorylated AKTSer473 (pAKT S473).
# (§2) PC3 cells (prostate tumor cell-line that contains a mutation in the tumor suppressor PTEN, that promotes the phosphorylation and activation of AKT and 4E-BP 1) were used in the immunofluorescence assay. PC3 cells were seeded on 384 well plates (black clear bottom, Matrix #4332) overnight. PC3 cells were then treated with 40 μl of the serially diluted test compounds (in 5% fetal bovine serum, F12 medium containing 0.25% DMSO) for ninety minutes at 37° C. The test compound solution was removed, and the plates were washed gently two times with 25 μl phosphate buffered saline (PBS). The cells were fixed by adding 25 μl of Prefer reagent (from Anatech LTD, Cat#414, a glyoxal fixative for fixing proteins within a cell) for sixty minutes followed by three washes with PBS. 5% Goat serum in PBS/0.3% Triton was used to block non-specific binding (60 minutes).
# (§3) The primary antibodies targeting pAKT S473 and p4E-BP1 Thr37/46 were diluted into PBS/0.3% Triton and incubated with the cells overnight at 4° C. The antibodies targeting pAKTS473 (Cat#4085, Cell signaling) and p4E-BP1 Thr37/46 (Cat#2855, Cell signaling) were used at a 1:100 dilution. Plates were washed three times with PBS/0.1% Tween 20 before adding the secondary antibody at a 1:200 dilution. (goat anti-rabbit containing a fluorescent label, Alexa Fluor 488, Cat# A11008, Invitrogen) in PBS/0.3% Triton for 60 minutes.
# (§4) Finally, the plates were washed three times with PBS/0.1% Tween 20 and the fluorescent intensity was read using an Analyst HT from Molecular Devices. The fluorescent intensity values from the serially diluted compound treatment group were analyzed using the Xlfit 4 program ([…]) (Formula 205: Y=Bottom+(Top-Bottom)/(1+(IC50/X)^Hillslope) to generate the IC50 value. Where Top is the maximum signal without Compound (+DMSO only) and Bottom represents maximum inhibition. Y is the fluorescence at some compound concentration. The control used to determine the fluorescent intensities for 100% pAKT S473 or 100% phosphorylated p4E-BP1 Thr37/46 were measured from untreated wells that contained only DMSO, instead of test compound.
# [2] = system: mTORC1 (p4E-BP1 Thr37/46) in PC3 cells; test: mTOR target engagement assay, immunofluorescent cell-based, mTORC1 activity by reduction of p4E-BP1 Thr37/46; conditions: Homo sapiens, PC-3, ninety minutes at 37° C., immunofluorescence
# Description: as §1, §2, §3, §4
Compound,IC50 [1],IC50 [2]
"Cc1n[nH]c2c1c([C@@H]1C[C@H]3CC[C@@H](C1)N3C(=O)c1nnc[nH]1)nc1c(-c3ccc(-c4ccccc4)nc3)cnn12 [Example 1, ((1R,3s,5S)-3-(3-methyl-6-(6-phenylpyridin-3-yl)-1H-dipyrazolo[1,5-a:4′,3′-e]pyrimidin-4-yl)-8-azabicyclo[3.2.1]octan-8-yl)(4H-1,2,4-triazol-3-yl)methanone]",1 to 100 nM,100 to 1000 nM
"O=C(c1nnc[nH]1)N1[C@@H]2CC[C@H]1C[C@H](c1nc3c(-c4ccc(-c5ccccc5)nc4)cnn3c3[nH]ccc13)C2 [Example 2, ((1R,3s,5S)-3-(3-(6-phenylpyridin-3-yl)-8H-pyrazolo[1,5-a]pyrrolo[3,2-e]pyrimidin-5-yl)-8-azabicyclo[3.2.1]octan-8-yl)(4H-1,2,4-triazol-3-yl)methanone]",1 to 100 nM,1 to 100 nM
"CC(C)(O)c1ccc(-c2cnn3c2nc([C@@H]2C[C@H]4CC[C@@H](C2)N4C(=O)c2nnc[nH]2)c2cc[nH]c23)cn1 [Example 3, ((1R,3s,5S)-3-(3-(6-(2-hydroxypropan-2-yl)pyridin-3-yl)-8H-pyrazolo[1,5-a]pyrrolo[3,2-e]pyrimidin-5-yl)-8-azabicyclo[3.2.1]octan-8-yl)(1H-1,2,4-triazol-3-yl)methanone]",100 to 1000 nM,100 to 1000 nM
"CC(C)(O)c1ccc(-c2cnn3c2nc([C@@H]2C[C@H]4CC[C@@H](C2)N4C(=O)CO)c2cc[nH]c23)cn1 [Example 4, 2-hydroxy-1-((1R,3s,5S)-3-(3-(6-(2-hydroxypropan-2-yl)pyridin-3-yl)-8H-pyrazolo[1,5-a]pyrrolo[3,2-e]pyrimidin-5-yl)-8-azabicyclo[3.2.1]octan-8-yl)ethanone]",1000 to 2000 nM,100 to 1000 nM
"O=C(CO)N1[C@@H]2CC[C@H]1C[C@H](c1nc3c(-c4ccc(-c5ncc[nH]5)nc4)cnn3c3[nH]ccc13)C2 [Example 5, 1-((1R,3s,5S)-3-(3-(6-(1H-imidazol-2-yl)pyridin-3-yl)-8H-pyrazolo[1,5-a]pyrrolo[3,2-e]pyrimidin-5-yl)-8-azabicyclo[3.2.1]octan-8-yl)-2-hydroxyethanone]",1 to 100 nM,100 to 1000 nM
"O=C(c1nnc[nH]1)N1[C@@H]2CC[C@H]1C[C@H](c1nc3c(-c4ccc(-c5ncc[nH]5)nc4)cnn3c3[nH]ccc13)C2 [Example 6, ((1R,3s,5S)-3-(3-(6-(1H-imidazol-2-yl)pyridin-3-yl)-8H-pyrazolo[1,5-a]pyrrolo[3,2-e]pyrimidin-5-yl)-8-azabicyclo[3.2.1]octan-8-yl)(4H-1,2,4-triazol-3-yl)methanone]",1 to 100 nM,1 to 100 nM
